This note sets out measurements from PubChem BioAssay AID623930 (Southern Research Specialized Biocontainment Screening …, 2012).

The viability is a per cent measure of how many cells are alive, often set against a control. A word on the CC50: it is the concentration at which the toxic effect on the cells reaches its halfway point.

Assay [1] in a line: viability of Vero E6 cells – cell-based, synthesized analogs, extended characterization 2, cytotoxicity control for West Nile virus antiviral project, SAR follow-up (AID 623930). The following applies: Vero E6 viability, CellTiter-Glo luminescence, 96 h; at 100 µM (top of the series). For orientation: ATP-based viability assays read luminescence as a measure of living cells.
For assay [2], the system named is Vero E6 viability, CellTiter-Glo luminescence, 96 h. The assay is described as above.

The source made the active and inactive calls.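 How the source made its calls: active means viability below 70% at one or more concentrations in every replicate; inactive means viability above 70% at all doses, or replicates disagree.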

With `O=C(CSc1nc2c(F)cccc2c(=O)n1-c1ccc(Cl)c(Cl)c1)Nc1nc(-c2ccccc2)cs1`, the viability in assay [1] is 73.3% (inactive).

In the case of `N#Cc1ccc(-n2c(SCC(=O)Nc3nc(-c4ccccc4)cs3)nc3ccccc3c2=O)cc1F`, the viability in assay [1] was 78.4% (inactive).

For `Cc1cc(-n2c(SCC(=O)Nc3nc(-c4ccccc4)cs3)nc3ccccc3c2=O)ccc1F`, the CC50 in assay [2] is 87.8 µM.

For the compound `O=C(CSc1nc2c(F)cccc2c(=O)n1-c1cc(Cl)cc(Cl)c1)Nc1ccc2c(c1)CCC2`, the CC50 in assay [2] was 77 µM.

For `O=C(CSc1nc2ccccc2c(=O)n1-c1ccc(Cl)c(Cl)c1)Nc1ccc2c(c1)CCC2`, in assay [1], the viability is 75.2% (inactive).

In the case of `O=C(CSc1nc2c(F)cccc2c(=O)n1-c1ccc(Cl)c(Cl)c1)Nc1ccc2c(c1)CCC2`, the CC50 in assay [2] is 34.5 µM.

As for `O=C(CSc1nc2ccccc2c(=O)n1-c1c(Cl)cccc1Cl)Nc1ccc2c(c1)CCC2`, the viability in assay [1] is 74.6% (inactive).

As to `O=C(CSc1nc2cccc(F)c2c(=O)n1-c1ccc(Cl)c(Cl)c1)Nc1ccc2c(c1)CCC2`, in assay [1], the viability is 71.9% (inactive).

For `O=C(CSc1nc2ccccc2c(=O)n1-c1c(Cl)cccc1Cl)Nc1nc(-c2ccccc2)cs1`, in assay [2], the CC50 is 52.6 µM.

In the case of `O=C(CSc1nc2ccccc2c(=O)n1-c1ccc(Cl)c(F)c1)c1nc(-c2ccccc2)cs1`, the viability in assay [1] was 72% (inactive).

`O=C(CSc1nc2c(Cl)cccc2c(=O)n1-c1cc(Cl)cc(Cl)c1)Nc1ccc2c(c1)CCC2`: the CC50 in assay [2] is 72.2 µM.

On to `O=C(CSc1nc2ccccc2c(=O)n1-c1cc(F)cc(F)c1)Nc1nc(-c2ccccc2)cs1`, for which the CC50 in assay [2] is 82.9 µM.

For `O=C(CSc1nc2c(F)cccc2c(=O)n1-c1cc(Cl)cc(Cl)c1)Nc1nc(-c2ccccc2)cs1`, the viability in assay [1] was 76% (inactive).
